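Cells were grown in 96-well plates and exposed to each compound for 48 hours at five concentrations; endpoints were interpolated linearly between bracketing concentrations, or set to the highest concentration if not reached. Here, GI50 denotes the concentration required for 50% inhibition of growth.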 Active and inactive are the calls of the source. No stated cut-off is given here; in the data, active = GI50 up to about 1.1 µM and inactive = higher. Positions of bridges follow the written chain, without caps; N, C: chain ends. Residues, ends and D or L forms follow the SMILES beside them.
How the values were obtained:
Experiment in all cases: NCI tumour cell line growth inhibition, 48 h
[1] = system: MDA-N
[2] = system: BT-549
[3] = system: DMS-114
[4] = system: DLD-1
[5] = system: DMS-273
[6] = system: KM-20L2
[7] = system: HOP-18
[8] = system: XF498
[9] = system: RXF 631

| SMILES | GI50 [1] | GI50 [2] | GI50 [3] | GI50 [4] | GI50 [5] | GI50 [6] | GI50 [7] | GI50 [8] | GI50 [9] |
| --- | --- | --- | --- | --- | --- | --- | --- | --- | --- |
| C[N+]12CCCCC1C(CN1C(=O)Cc3c4ccccc4c(c4ccccc34)CC1=O)CCC2 (stereo unspecified) | > 100 µM (inactive) | > 100 µM (inactive) |  |  |  |  |  |  |  |
| COC1=CC(=O)C2C(C1=O)[C@@H]1c3ccccc3OC[C@H]21 (stereo partly specified) |  |  | > 100 µM (inactive) | > 100 µM (inactive) | > 100 µM (inactive) | > 100 µM (inactive) | > 100 µM (inactive) |  |  |
| COc1ccc(-c2nc3ncccn3c2-c2ccc([S+](C)[O-])cc2)cc1 (stereo unspecified) | 36.9 µM (inactive) | > 100 µM (inactive) |  |  |  |  |  |  |  |
| CC1(C)CCCCCCCCCC(C)(CCCO)C1=O (stereo unspecified) | 16.4 µM (inactive) | 17.7 µM (inactive) |  |  |  |  |  |  |  |
| CCC/C(Cl)=N\OC(=O)Nc1ccc(Br)cc1 | 13.2 µM (inactive) | 17.7 µM (inactive) |  |  |  |  |  |  |  |
| NC(Cc1c[nH]c2cc([N+](=O)[O-])ccc12)C(=O)O (stereo unspecified) | > 100 µM (inactive) | > 100 µM (inactive) |  |  |  |  |  |  |  |
| CC1=NN(c2ccccc2)C(=O)C1/N=N/c1ccc([As](=O)(O)O)c(O)c1 (stereo unspecified) | > 100 µM (inactive) | > 100 µM (inactive) |  |  |  |  |  |  |  |
| CC(=O)OC1(C#N)CC2OC1C1NC21 (stereo unspecified) |  |  | > 100 µM (inactive) | > 100 µM (inactive) |  | > 100 µM (inactive) |  | > 100 µM (inactive) | > 100 µM (inactive) |
| N=C(N)NS(=O)(=O)c1ccc(NCc2c3ccccc3[n+]([O-])c3ccccc23)cc1 |  |  | 10.4 µM (inactive) | 28.2 µM (inactive) | 9.35 µM (inactive) | 30.1 µM (inactive) | 8.63 µM (inactive) |  |  |
| Cc1ccc(-c2cc(O)c3nc4ccccc4n3c2)cc1 | > 100 µM (inactive) | > 100 µM (inactive) |  |  |  |  |  |  |  |
| N#CC(C(=N/O)/C(=N/O)C(C#N)c1ccc(Cl)cc1)c1ccc(Cl)cc1 (stereo unspecified) |  |  | > 100 µM (inactive) | > 100 µM (inactive) | > 100 µM (inactive) | > 100 µM (inactive) | 43.6 µM (inactive) | > 100 µM (inactive) |  |
| CCc1ccccc1NC(=O)C1=C(C)NC(C)=C(C(=O)Nc2ccccc2CC)C1c1ccc2c(c1)OCO2 |  |  | 22.9 µM (inactive) | 22.7 µM (inactive) |  | > 10 µM (inactive) |  | 23 µM (inactive) |  |
| CC(=O)/C=C/C=C(\C)CC/C=C(\C)CC(C)C | 30.2 µM (inactive) |  |  |  |  |  |  |  |  |
| Oc1cccnc1/C=N/OCc1ccccc1 |  |  | > 100 µM (inactive) | > 100 µM (inactive) | > 100 µM (inactive) | > 100 µM (inactive) |  | 29 µM (inactive) |  |
| O=C1N/C(=N/N=C/c2ccccc2)N/C1=C\c1cccs1 | 8.32 µM (inactive) | 15.2 µM (inactive) |  |  |  |  |  |  |  |
| Cc1nn(C(=O)c2ccccc2O)c2c1C(c1ccc(O)cc1O)SC(=N)N2 (stereo unspecified) | 5.78 µM (inactive) | 2.52 µM (inactive) |  |  |  |  |  |  |  |
| O=C(c1ccc(/N=C/c2ccccc2O)cc1)c1ccc(/N=C/c2ccccc2O)cc1 |  | > 100 µM (inactive) |  |  |  |  |  |  |  |
| C/C(=N\NC(=S)N1CCN(c2ccccn2)CC1)c1ccccn1 | 0.167 µM (active) | 0.01 µM (active) | 0.0001 µM (active) | 0.000509 µM (active) | 0.00069 µM (active) | 0.000413 µM (active) |  | 0.000206 µM (active) |  |
| Cc1ccc(S(=O)(=O)NC2CCCCO2)cc1 (stereo unspecified) |  |  | > 100 µM (inactive) | > 100 µM (inactive) | > 100 µM (inactive) | > 100 µM (inactive) | > 100 µM (inactive) | > 100 µM (inactive) |  |
| CC(/C=N/N(C)C1=NCCCN1)=N/N(C)C1=NCCCN1 | > 100 µM (inactive) | > 100 µM (inactive) |  |  |  |  |  |  |  |
| O=C1C(C(c2ccc([N+](=O)[O-])cc2)N2CCOCC2)=C(O)C(c2ccccc2)N1c1ccccc1 (stereo unspecified) | > 10 µM (inactive) | > 10 µM (inactive) |  |  |  |  |  |  |  |
| CC(=O)OCC12C(OC(C)=O)C(=O)C3C(OC(C)=O)C14OC3(C)COC(=O)c1cccnc1C(C)C(C)C(=O)OC(C(OC(C)=O)C2OC(C)=O)C4(C)O (stereo unspecified) | > 100 µM (inactive) | > 100 µM (inactive) |  |  |  |  |  |  |  |
| Nc1nc(=O)c2c([nH]1)NCC(CCNc1ccc(C(=O)O)cc1)N2 (stereo unspecified) | > 100 µM (inactive) | > 100 µM (inactive) |  |  |  |  |  |  |  |
| C=Cc1ccc(C)[n+](C[Si](C)(C)O[Si](C)(C)C[n+]2cc(C=C)ccc2C)c1 |  |  | > 100 µM (inactive) | > 100 µM (inactive) | > 100 µM (inactive) | > 100 µM (inactive) | > 100 µM (inactive) |  |  |
| Cc1ccc(C)c(NC(=O)c2cccc([N+](=O)[O-])c2O)c1 |  |  | 15.1 µM (inactive) | 27.8 µM (inactive) | 24.1 µM (inactive) | 24.6 µM (inactive) | 5.7 µM (inactive) | 23.2 µM (inactive) |  |
| CCC(C)C1NC(=O)C(CC(C)C)NC(=O)C(C(C)C)NC(=O)C2CSSCC(NC1=O)C(=O)N2 (stereo unspecified) (cyclo(CCVLI); disulfide 1-2; configuration not given here) | 0.184 µM (active) | 0.198 µM (active) |  |  |  |  |  |  |  |
| C=C1C(=O)[C@]23C[C@H]1C[C@@H](O)[C@H]2[C@]1(COC3=O)[C@@H](OC(C)=O)CC[C@@](C)(COC(C)=O)[C@H]1C=O [LOXOTHYRIN A] | > 50 µM (inactive) | 23.7 µM (inactive) |  |  |  |  |  |  |  |

From ChEMBL document CHEMBL1201862, “PubChem BioAssay data set” (2004)
